Like-named read-outs stand apart in the source and are kept apart here.
Columns and labels:
CD38 = assay: Hydrolase and cyclase activities of human and murine CD38; type: biochemical; details: for Effect on hydrolase and cyclase activities of human and murine CD38: sUA precursors and metabolite, above physiological levels, Figure 2B, C and supplement 1A–C; for Effect on CD38 activity: analogs and fragments, 5 to 500 μM, recombinant hCD38, THP-1 cells, WT lung tissues, Figure 2D, E
Procedure: The hydrolase activity of CD38 was measured according to a previous report ([de Oliveira et al., 2018]) with minor modifications. CD38 hydrolase activity was measured using 50 μM ε-NAD^+ as a substrate in hydrolase reaction buffer (250 mM sucrose, 40 mM Tris-HCl, pH 7.4). Briefly, cells or tissues were directly homogenized in blank reaction buffer on ice, and recombinant hCD38 was diluted in blank reaction buffer for subsequent assays. The tissue homogenates were centrifuged to collect the supernatant for enzyme assays. The loading volume of enzyme was 4–30 μL, the total volume of the reaction system was 3 mL. To detect enzyme inhibition, except when specified, the ligands were directly dissolved in hydrolase reaction buffer before pH adjustment, after which, the pH was immediately adjusted to 7.4. All reaction buffers, with or without ligands, were freshly prepared before each assay. For measurement of hydrolase activity, 3 mL reaction buffer containing enzyme, ε-NAD^+, and ligands at indicated concentrations was maintained at 37°C with constant stirring.
The cyclase activity of CD38 was measured as previously described ([Higashida et al., 1999]; [Jin et al., 2007]). CD38 cyclase activity was measured using 60 μM NGD as a substrate in cyclase reaction buffer (100 mM KCl, 10 μM CaCl2, and 50 mM Tris-HCl, pH 6.6). Tissues were cut into pieces and suspended in the buffer (5 mM MgCl2, 10 mM Tris-HCl, pH 7.3) at 4°C for 30 min. Then, the suspension was homogenized on ice, and the supernatant was collected after centrifugation. To collect the crude membrane fractions, the supernatant was centrifuged at 105,000×g for 30 min. The final pellet was resuspended in 10 mM Tris-HCl solution (pH 6.6) for cyclase assay. Homogenates of THP-1 or A549 cells, and recombinant hCD38 were used directly for cyclase assays. The loading volume of enzyme was 4–20 μL, the total volume of reaction system was 3 mL. To detect enzyme inhibition, except when specified, the ligands were directly dissolved in cyclase reaction buffer before pH adjustment, after which, the pH was immediately adjusted to 6.6. All reaction buffers, with or without ligands, were freshly prepared before each assay. For measurement of cyclase activity, 3 mL reaction buffer containing enzyme, NGD, and ligands at indicated concentrations was maintained at 37°C with constant stirring.
The reaction buffer for hydrolase or cyclase assays was excited at 300 nm, and fluorescence emission was measured every second at 410 nm by Shimazu RF-6000 spectrofluorometer. Hydrolase or cyclase activity was calculated from the linear portion of the time course by fitting a linear function to the data points recorded within 5 min.
(§1) Guanosine was dissolved in DMSO and diluted in the reaction buffer for subsequent assays.
For reversibility test, recombinant hCD38 was pre-incubated for 30 min in four conditions: (1) control reaction buffer; (2) in the presence of 100 μM substrate (ε-NAD^+ or NGD); (3) 500 μM sUA; (4) both substrate and sUA. Subsequently, the enzyme was diluted 100-fold in reaction buffer in the presence or absence of 500 μM sUA for activity assays using ε-NAD^+ or NGD. Naïve THP-1 and A549 cells were incubated with RPMI-1640 medium in the presence or absence of 500 μM sUA for 2 hr. The cells were collected and homogenized in the reaction buffer on ice with or without 500 μM sUA, samples were then diluted 100-fold in reaction buffer with or without 500 μM sUA for enzyme assay. Control group was not treated with sUA in all steps; sUA group was treated with sUA in each step; sUA release group was treated with sUA prior to dilution in sUA-free buffer for enzyme assays.

[1] = Solubility and crystal precipitation in solution; type: physicochemical
Procedure: as §1
MSU crystals were prepared by the recrystallization of oversaturated sUA according to a previous report ([Martinon et al., 2006]). Improper preparation of sUA solution may introduce crystals to cause false-positive or false-negative results. […] In this study, the sUA solution was prepared according to an improved protocol ([Ma et al., 2020]). […] Then, sUA solution was immediately filtered by 0.2 μm filters and diluted to experimental concentration (up to 10 mg/dL, 595 μM) for cell experiments. […]

Row | Effect on hydrolase and cyclase activities of human and murine CD38 (CD38) | Compound | also measured
1 | hardly inhibited | Nc1ncnc2c1ncn2[C@@H]1O[C@H](CO)[C@@H](O)[C@H]1O [Adenosine, adenosine] | –
2 | hardly inhibited | Nc1nc2c(ncn2[C@@H]2O[C@H](CO)[C@@H](O)[C@H]2O)c(=O)[nH]1 [Guanosine, guanosine, reference compound] | Solubility in reaction buffer ([1]; tested only at 50 μM): limited solubility
3 | hardly inhibited | O=c1[nH]c(=O)c2nc[nH]c2[nH]1 [Xanthine, xanthine] | –

The remaining lines, values behind:

Row | Compound | Effect on hydrolase and cyclase activities of human and murine CD38 (CD38) | also measured
4 | 8-oxoguanine [8-OG, reference compound] | – | Solubility in reaction buffer [1]: limited solubility
5 | NC(=O)NC1NC(=O)NC1=O (stereo not drawn) [Allantoin, allantoin] | hardly inhibited | –
6 | O=c1[nH]cc[nH]1 [1,3-DHI-2-one, 1,3-dihydroimidazol-2-one] | – | Effect on CD38 activity (CD38): did not affect CD38 activity
7 | O=c1[nH]cnc2nc[nH]c12 [Hypoxanthine, hypoxanthine] | hardly inhibited | –
8 | O=c1cc[nH]c(=O)[nH]1 [Uracil, uracil] | – | Effect on CD38 activity (CD38): did not affect CD38 activity
